In this test the test system is KB. As to the kind of experiment: Cytotoxicity against human KB cells. To be noted: for EC50: read-out: ED50 (the source's name). The format is functional.

Converted amounts (≈) assume the structure as drawn. The source made the active and inactive calls. No cut-off for these calls is given here.

Turning to `O=c1cc2c3ccccc3n3c(=O)ccc([nH]1)c23`, the result was inactive. Still for that read-out and setting: next, `COn1c(=O)cc2c3ccccc3n3c(=O)ccc1c23`: “inactive”.

Turning to `COc1ccc2c(c1)c1ccnc3ccc(=O)n2c31`, the EC50 came out at 2.1 µg/mL (≈ 8.39 µM). As to `O=c1ccc2nccc3c4cc(O)ccc4n1c23`, the EC50 amounted to 2.2 µg/mL (≈ 9.31 µM). For the molecule `COn1c(=O)cc2c3cc(O)ccc3n3c(=O)ccc1c23`, the result was inactive.

For the origin of these results see ChEMBL document CHEMBL1151415, “Plant anticancer agents. XXIV. Alkaloid constituents of Simaba multiflora” (1983).
